Test results: ChEMBL document CHEMBL5214955, “Design, synthesis and activity evaluation of Hedgehog inhibitor Itraconazole derivatives in A549 cells” (Bioorg Med Chem Lett, 2022)
Calls of active or inactive are those of the source. No cut-off for these calls is given here.

Legend:
A549 [1] = assay: Antiproliferative activity against human A549 cells assessed as inhibition of cell proliferation incubated for 48 hrs by MTT assay; type: functional, cell-based; settings: A549, 48 h
HepG2 = assay: Antiproliferative activity against human HepG2 cells assessed as inhibition of cell proliferation incubated for 48 hrs by MTT assay; type: functional, cell-based; settings: HepG2, 48 h
[2] = Cytotoxicity against human L02 cells assessed as inhibition of cell proliferation incubated for 48 hrs by MTT assay; type: toxicity, cell-based
[3] = Inhibition of hedgehog signalling pathway in human A549 cells assessed as reduction in Gli gene expression incubated for 24 hrs by qPCR analysis; type: cell-based; settings: A549, 24 h
A549 [4] = assay: Induction of apoptosis in human A549 cells assessed as necrotic cells at 30 uM incubated for 24 hrs by Annexin V-FITC/PI staining based flow cytometric analysis (reference value: 0.084%); type: functional
A549 [5] = assay: Induction of apoptosis in human A549 cells assessed as early apoptotic cells at 30 uM incubated for 24 hrs by Annexin V-FITC/PI staining based flow cytometric analysis (reference value: 0.316%); type: functional
A549 [6] = assay: Induction of apoptosis in human A549 cells assessed as late apoptotic cells at 30 uM incubated for 24 hrs by Annexin V-FITC/PI staining based flow cytometric analysis (reference value: 1.40%); type: functional
A549 [7] = assay: Induction of apoptosis in human A549 cells assessed as viable cells at 30 uM incubated for 24 hrs by Annexin V-FITC/PI staining based flow cytometric analysis (reference value: 98.2%); type: functional; settings: read-out: Activity
A549 [8] = assay: Antiproliferative activity against human A549 cells assessed as inhibition of clone formation at 10 uM incubated for 1 day followed by culture in new medium for 7 days by crystal violet staining based assay relative to control; type: functional; parameters: scale not given: the % may be the effect or the level left; settings: time 8 day
A549 [9] = assay: Induction of intracellular reactive oxygen species production in human A549 cells assessed as increase in number ROS positive cells at 30 uM and measured after 24 hrs by H2DCFH-DA staining based flow cytometric analysis (Rvb=1.10%); type: functional
A549 [10] = assay: Induction of mitochondrial membrane potential loss in human A549 cells assessed as assessed as proportion of MMP decreased cells at 30 uM and measured after 24 hrs by JC-1 staining based flow cytometry assay (reference value: 7.50%); type: functional; parameters: scale not given: the % may be the effect or the level left
A549 [11] = assay: Induction of intracellular reactive oxygen species production in human A549 cells assessed as increase in number ROS positive cells at 30 uM and measured after 4 hrs by H2DCFH-DA staining based flow cytometric analysis; type: functional, cell-based
A549 [12] = assay: Induction of intracellular reactive oxygen species production in human A549 cells assessed as increase in number ROS positive cells at 30 uM and measured after 4 hrs by DCFH-DA probe based confocal microscopy; type: functional, cell-based
A549 [13] = assay: Induction of mitochondrial membrane potential loss in human A549 cells assessed as assessed as proportion of MMP decreased cells at 30 uM and measured after 4 hrs by JC-1 staining based flow cytometry assay; type: functional, cell-based

Row | SMILES | IC50 (A549 [1]) [µM] | IC50 (HepG2) [µM] | IC50 [3] [µM] | IC50 at 48 h [2] [µM] | Activity (A549 [4]) [%] | Activity (A549 [5]) [%] | Activity (A549 [6]) [%] | viability at 30 µM (A549 [7]) [%] | Activity (A549 [8]) [%] | Activity (A549 [9]) [%] | Activity (A549 [10]) [%] | Activity (A549 [11]) | Activity (A549 [12]) | Activity (A549 [13])
1 | O=C(Nc1ccc(N2CCN(c3ccc(OC[C@@H]4CO[C@@](Cn5cncn5)(c5ccc(Cl)cc5Cl)O4)cc3)CC2)cc1)c1cccc(F)c1 | 6.64 | 10.8 |  | > 50 |  |  |  |  |  |  |  |  |  | 
2 | O=C(Nc1ccc(N2CCN(c3ccc(OC[C@@H]4CO[C@@](Cn5cncn5)(c5ccc(Cl)cc5Cl)O4)cc3)CC2)cc1)c1cccs1 | 4.33 | 9.77 |  | > 50 |  |  |  |  |  |  |  |  |  | 
3 | CCC(C)n1ncn(-c2ccc(N3CCN(c4ccc(OCC5COC(Cn6cncn6)(c6ccc(Cl)cc6Cl)O5)cc4)CC3)cc2)c1=O (stereo unspecified) [ITRACONAZOLE] | 3 | 7.87 | 0.125 | > 50 | 3.84 | 7.65 | 34.6 | 53.9 | 34 | 38.3 | 36.3 |  |  | 
4 | O=C(CC1CCOCC1)Nc1ccc(N2CCN(c3ccc(OC[C@@H]4CO[C@@](Cn5cncn5)(c5ccc(Cl)cc5Cl)O4)cc3)CC2)cc1 | 10 | 21.1 |  | > 50 |  |  |  |  |  |  |  |  |  | 
5 | O=C(Cc1cccs1)Nc1ccc(N2CCN(c3ccc(OC[C@@H]4CO[C@@](Cn5cncn5)(c5ccc(Cl)cc5Cl)O4)cc3)CC2)cc1 | 2.13 | 5.05 | 0.251 | > 50 | 1.89 | 7.54 | 46.1 | 44.5 | 28 | 53 | 44.9 | Active | Active | Active
6 | Cc1ccc(C(=O)Nc2ccc(N3CCN(c4ccc(OC[C@@H]5CO[C@@](Cn6cncn6)(c6ccc(Cl)cc6Cl)O5)cc4)CC3)cc2)o1 | 4.75 | 8.7 |  | > 50 |  |  |  |  |  |  |  |  |  | 
7 | O=C(Nc1ccc(N2CCN(c3ccc(OC[C@@H]4CO[C@@](Cn5cncn5)(c5ccc(Cl)cc5Cl)O4)cc3)CC2)cc1)c1ccco1 | 10.5 | 22.3 |  | > 50 |  |  |  |  |  |  |  |  |  | 
8 | O=C(Nc1ccc(N2CCN(c3ccc(OC[C@@H]4CO[C@@](Cn5cncn5)(c5ccc(Cl)cc5Cl)O4)cc3)CC2)cc1)c1ccc(F)c(F)c1 | 8.69 | 19.9 | 0.844 | > 50 |  |  |  |  |  |  |  |  |  | 

Now from value to molecule, other results behind:

Row | IC50 (A549 [1]) [µM] | IC50 (HepG2) [µM] | IC50 [3] [µM] | SMILES | IC50 at 48 h [2] [µM] | Activity (A549 [4]) [%] | Activity (A549 [5]) [%] | Activity (A549 [6]) [%] | viability at 30 µM (A549 [7]) [%] | Activity (A549 [8]) [%] | Activity (A549 [9]) [%] | Activity (A549 [10]) [%] | Activity (A549 [11]) | Activity (A549 [12]) | Activity (A549 [13])
9 | 2.99 | 9.93 |  | CCCC(=O)Nc1ccc(N2CCN(c3ccc(OC[C@@H]4CO[C@@](Cn5cncn5)(c5ccc(Cl)cc5Cl)O4)cc3)CC2)cc1 | > 50 |  |  |  |  |  |  |  |  |  | 
10 | 2.06 | 5.34 | 0.089 | O=C(CCc1ccccc1)Nc1ccc(N2CCN(c3ccc(OC[C@@H]4CO[C@@](Cn5cncn5)(c5ccc(Cl)cc5Cl)O4)cc3)CC2)cc1 | > 50 | 1.07 | 12.4 | 51.8 | 34.7 | 22 | 62.9 | 55.4 | Active | Active | Active
11 | 2.61 | 7.01 | 0.457 | O=C(CCCCc1ccccc1)Nc1ccc(N2CCN(c3ccc(OC[C@@H]4CO[C@@](Cn5cncn5)(c5ccc(Cl)cc5Cl)O4)cc3)CC2)cc1 | > 50 |  |  |  |  |  |  |  |  |  | 
12 | 3.78 | 10.8 | 0.782 | O=C(CCCc1ccccc1)Nc1ccc(N2CCN(c3ccc(OC[C@@H]4CO[C@@](Cn5cncn5)(c5ccc(Cl)cc5Cl)O4)cc3)CC2)cc1 | > 50 |  |  |  |  |  |  |  |  |  | 
13 | 2.55 | 5.46 | 0.873 | CCC(=O)Nc1ccc(N2CCN(c3ccc(OC[C@@H]4CO[C@@](Cn5cncn5)(c5ccc(Cl)cc5Cl)O4)cc3)CC2)cc1 | > 50 |  |  |  |  |  |  |  |  |  | 
14 | 5.34 | 14.1 |  | CCCCC(=O)Nc1ccc(N2CCN(c3ccc(OC[C@@H]4CO[C@@](Cn5cncn5)(c5ccc(Cl)cc5Cl)O4)cc3)CC2)cc1 | > 50 |  |  |  |  |  |  |  |  |  | 
